Publication PMC5489165, “Identification of benzazole compounds that induce HIV-1 transcription” (PLoS ONE, 2017)
Where two headings read alike, the source gives them in different places.

Assays:
[1] = test system: Caco-2 cells; assay: Caco-2 assay; type: in vitro ADME, human; conditions: 10 μM, 1 h, top to bottom chamber
Description: Caco-2 cells obtained from ATCC were plated on filters of a 24-well Boyden chamber and allowed to replicate for five days. Prior to initiating a study, the integrity of the cell layer was assessed by measuring the transepithelial electrical resistance (TEER) values. […] After 1h, medium was removed from the bottom chamber. After completion of the assay, the integrity of the cell layer was measured by transfer of the fluorescent dye, Lucifer yellow, across the cell layer. Samples taken from the apical chamber at the start of the study and from the basal chamber at the end of the study were assessed for drug levels using LC-MS/MS technology and used to calculate the apparent permeability (Papp).

[2] = Cytotoxicity assay in stimulated PBMCs (ATP, CellTiter-Glo); type: cell-based; conditions: PBMCs stimulated with PHA and IL-2, ATP quantification
Description: (§1) SupT1 cells were plated at 100,000 per well in 96-well, white-walled plates with serial dilutions of test compound in a total volume of 100 μl RPMI-1640 medium containing 10% FBS and 0.5% DMSO. PBMCs were plated similarly at 50,000 cells/well and stimulated by addition of 40 μg/ml PHA and 80 ng/ml interleukin-2 (IL-2). Cells were incubated for 72 h at 37°C, 5% CO2. ATP was quantified using the CellTiter-Glo Luminescent Cell Viability Assay (Promega, Madison, WI) on a ViewLux microplate imager (Perkin Elmer, Waltham, MA). Percent cytotoxicity was determined relative to vehicle-only treated wells.

[3] = test system: HIV-1 transcription in 24STNLSG cells; assay: SEAP assay in 24STNLSG cells (latency reactivation); type: cell-based; conditions: 72 h; for Max. fold induction, 24STNLSG: SEAP reporter; for EC2X, 24STNLSG: concentration for 2-fold increase in SEAP activity
Description: SupT1-derived 24STNLSG cells were plated at 100,000 cells/well in black bottom/black walled 96-well plates in 50 μl RPMI-1640 medium (without phenol red) containing 10% FBS. Compound was added in 50 μl of identical medium using three-fold dose-response dilutions, in duplicate. […] TNF-α, a nuclear factor-κB (NF-κB) activator known to induce HIV- expression in cellular models, was used as a positive control. Plates were incubated for 72 h at 37°C, 5% CO2. Plates were then sealed and heated to 65°C for 30 min. Plates were brought to room temperature and 50 μl assay buffer (1 mM MgCl2, 10 mM L-homoarginine, 1 M diethylamine hydrochloride) was added to each well and incubated for 5 min at room temperature. To each well, 50 μl of CSPD Substrate (0.4 mM Ready-to-Use with Sapphire-II Enhancer; Applied Biosystems, Foster City, CA) was added. Plates were incubated for 20 min at room temperature and read on a ViewLux microplate imager (Perkin Elmer, Waltham, MA). Curves were fit by non-linear regression using Prism software (GraphPad, San Diego, CA).

[4] = test system: HeLa nuclear extracts, HDAC1, HDAC2, HDAC3, HDAC8; assay: HDAC inhibition assay (fluorometric); type: biochemical; conditions: 10 μM
Description: HDAC inhibition was determined using HDAC Fluorometric Activity Assay/Drug Discovery Kit (BIOMOL International, Inc.) according to the manufacturer’s recommendations. HeLa cell nuclear extracts and purified HDACs 1, 2, 3, and 8 were obtained from BIOMOL. Briefly, HDAC inhibitors and test compounds were diluted to 5× concentration in assay buffer in a white, flat-bottom 96-well plate. HDAC samples (purified HDAC or HeLa nuclear extract) were diluted to the desired concentration in assay buffer and added to each well. HeLa extract was employed at a 150-fold dilution, while individual HDACs were tested at 0.3–9 μg/ml. Fluor de Lys™ substrate was diluted to 2× concentration in assay buffer and the HDAC reaction was initiated by addition of substrate to each well followed by incubation for 60 min at room temperature. A final concentration of 0.4% DMSO and 50 μM Fluor de Lys™ substrate was present in all samples. Samples with no enzyme were used as blanks and vehicle-only samples were used as negative controls. HDAC reactions were quenched by adding Fluor de Lys™ developer containing 2 μM trichostatin A. Plates were incubated at room temperature for 15 min prior to reading fluorescence for 0.1 s with an excitation wavelength of 360 nm and emission of 460 nm using a 5 nm slit on a Cary Eclipse Fluorescence Spectrophotometer (Varian, Inc.). […]

[5] = Protein binding, human plasma (ultrafiltration); type: in vitro ADME; conditions: human, plasma, pH 7.4
[6] = Protein binding, mouse plasma (ultrafiltration); type: in vitro ADME; conditions: mouse, plasma, pH 7.4
Description: Binding of test compound to plasma proteins was estimated by incubation of test compounds with mouse or human plasma. Human plasma was obtained from BioreclamationIVT (Westbury, NY). […] After a 15 min incubation at 37°C, triplicate aliquots of the incubation mixtures were transferred to a Millipore Multiscreen Ultracel-10 filter plate (10 kDa molecular mass cut off, EMD Millipore, Billerica, MA). The plate was centrifuged for 60 min at 3000 × g and 37°C. After centrifugation, aliquots of both the ultrafiltrates as well as the incubation mixtures prior to ultrafiltration were analyzed by LC-MS/MS to quantify the concentrations of test compound and reference compounds.

[7] = test system: HIV-1 RNA in ACH-2 cells; assay: HIV activation assay in ACH-2 model of latency (qRT-PCR); type: cell-based; conditions: 24 h; for Induction of HIV-1 transcription in ACH-2 cells (in words): 30 μM, qRT-PCR (Fig 3); for EC10X, ACH-2: concentration for 10-fold increase in HIV-1 RNA by qRT-PCR
Description: ACH-2 cells were maintained in RPMI-1640 medium without phenol red and with 10% FBS at 37°C in a 5% CO2 atmosphere. Cells were plated at 5000/well in 96-well round-bottom plated and test compounds were added in a final concentration of 0.5% DMSO, in duplicate. Cells were incubated for 24 h at 37°C, 5% CO2, then pelleted at 2000 × g for 5 min followed by washing in 0.1 ml PBS. RNA was isolated using Invitrogen PureLink 96 RNA Purification Kit with vacuum manifold per the manufacturer’s instructions, including DNase I treatment. HIV-1 transcripts were detected using TaqMan® RNA-to-CT™ 1-step kit (Applied Biosystems, Foster City, CA) and primers/probe specific to gag (SK38 forward: 5ʹ-[…]-3ʹ; SK39 reverse: 5ʹ-[…]-3ʹ; SK19 probe: 5ʹ-6FAM […] TAMRA-3ʹ) or tat (forward: 5ʹ-[…]-3ʹ; reverse: 5ʹ-[…]-3ʹ; probe: 5ʹ-6FAM […]-3ʹ). GAPDH RNA was monitored in all assays as an endogenous control for selectivity using a pre-developed TaqMan assay reagent (Applied Biosystems, Foster City, CA). RNA was quantified on an Applied Biosystems 7900HT. PCR replicates were performed for each biological replicate. Viral RNA expression was normalized to GAPDH RNA and data are expressed as the change from vehicle-only control wells.

[8] = Cytotoxicity assay in SupT1 cells (ATP, CellTiter-Glo); type: cell-based; conditions: human; for selectivity ratio at 72 h: read-out: Selective window, CC50 versus EC2X
Description: as §1

[9] = SupT1 cells, ATP quantification, 72 h, read-out: CC50, SupT1

In the case of `Nc1ccc2[nH]c(-c3ccc(-c4nc5cc(N)ccc5o4)cc3)nc2c1` [Compound 1, 2-(4-(5-amino-1H-benzimidazol-2-yl)phenyl)benzoxazol-5-amine], the “Caco-2 Papp” value [1] is reported as 38 10^−6 cm/s, the “Caco-2 Papp” value ([1]; listed as compound 1) is reported as 4.8 10^−6 cm/s and the CC50 at 72 h [2] is reported as 18 ± 6.8 µM. For the same compound, the “Max. fold induction, 24STNLSG” value [3] was “up to 80 fold”, the “Max. fold induction, 24STNLSG” value ([3]; listed as Cmpd 1) was 80 fold and the “EC2X, 24STNLSG” value [3] was 1.5 ± 0.7 µM. For the same compound, the “HDAC inhibitory activity (in words)” value [4] was “no HDAC inhibitory activity”, the fraction unbound at 15 min, 10 μM [5] was under 0.01 and the fraction unbound at 15 min, 10 μM [6] was under 0.03. The “Induction of HIV-1 transcription in ACH-2 cells (in words)” value [7] was “induced HIV-1 transcription”, the “EC10X, ACH-2” value [7] was 0.39 ± 0.12 µM and the CC50 at 72 h [8, 9] was 5.2 ± 1.1 µM. The selectivity ratio at 72 h ([8]; SupT1 cells, with regards to respective EC2X (SEAP reporter)) was at least 3 and the CC50 at 72 h ([8]; T cells (SupT1) and PBMCs, read-out: CC50 across cytotoxicity assays) was 5 to 18 µM.
For `Nc1ccc2[nH]c(-c3ccc(-c4nc5ccc(N)cc5o4)cc3)nc2c1` [Compound 2], the “Caco-2 Papp” value [1] was 4.8 10^−6 cm/s, the “Caco-2 Papp” value ([1]; listed as compound 2) was 38 10^−6 cm/s and the CC50 at 72 h [2] was over 100 µM. For the same compound, the “Max. fold induction, 24STNLSG” value [3] was 76 fold, the “EC2X, 24STNLSG” value [3] was 2.7 ± 2.3 µM and the “HDAC inhibitory activity (in words)” value [4] was “no HDAC inhibitory activity”. The fraction unbound at 15 min, 10 μM [5] was under 0.003, the fraction unbound at 15 min, 10 μM [6] was under 0.025 and the “Induction of HIV-1 transcription in ACH-2 cells (in words)” value [7] was “induced HIV-1 transcription”. The “EC10X, ACH-2” value [7] was 0.97 ± 0.50 µM, the CC50 at 72 h [8, 9] was over 100 µM and the selectivity ratio at 72 h ([8]; SupT1 cells) was at least 3.
